Measurements: BindingDB's records for doi:10.1016/j.bmcl.2009.08.022 (Roche Palo Alto, 2009)

Target: Genome polyprotein (Hepatitis C virus genotype 1b (isolate Con1), UniProt Q9WMX2)
Test: Inhibition of […] con1 NS5B polymerase assessed as [3H]UTP incorporation into acid insoluble RNA product

Genome polyprotein, sequence (Q9WMX2 2420-3010 limits assumed): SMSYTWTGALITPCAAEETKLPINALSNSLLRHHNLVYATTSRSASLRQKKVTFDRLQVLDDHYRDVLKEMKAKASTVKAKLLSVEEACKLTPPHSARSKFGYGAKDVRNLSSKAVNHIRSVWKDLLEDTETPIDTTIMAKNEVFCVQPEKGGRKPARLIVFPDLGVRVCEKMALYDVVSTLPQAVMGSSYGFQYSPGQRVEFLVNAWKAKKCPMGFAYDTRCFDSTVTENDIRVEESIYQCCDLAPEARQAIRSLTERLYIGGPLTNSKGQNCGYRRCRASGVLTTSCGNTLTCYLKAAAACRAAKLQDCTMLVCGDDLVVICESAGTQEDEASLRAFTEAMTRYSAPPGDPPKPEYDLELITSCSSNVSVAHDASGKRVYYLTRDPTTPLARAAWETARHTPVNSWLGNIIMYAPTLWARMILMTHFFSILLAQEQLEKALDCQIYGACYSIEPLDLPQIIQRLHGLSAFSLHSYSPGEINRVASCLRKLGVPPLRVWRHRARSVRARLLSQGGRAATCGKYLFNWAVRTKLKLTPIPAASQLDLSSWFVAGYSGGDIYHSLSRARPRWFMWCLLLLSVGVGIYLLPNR

Row | SMILES | IC50
1 | CC(C)(C)[C@H]1C(=O)C(=C2NS(=O)(=O)c3c(CCS(C)(=O)=O)cccc32)C(=O)N1Cc1ccc(F)cc1 [(S)-5-tert-Butyl-1-(4-fluoro-benzyl)-4-hydroxy-3-[7-(2-methanesulfonyl-ethyl)-1,1-dioxo-1H-1lambda*6*-benzo[d]isothiazol-3-yl]-1,5-dihydro-pyrrol-2-one] | 4 nM
2 | Cc1cc(CN2C(=O)C(C3NS(=O)(=O)c4c(C=NS(N)(=O)=O)cccc43)C(=O)[C@@H]2C(C)(C)C)ccc1F (stereo partly drawn) [N-({3-[(5S)-5-tert-butyl-1-[(4-fluoro-3-methylphenyl)methyl]-4-hydroxy-2-oxo-2,5-dihydro-1H-pyrrol-3-yl]-1,1-dioxo-{6},2-benzothiazol-7-yl}methyl)aminosulfonamide] | 3 nM
3 | Cc1cc(CN2C(=O)C(=C3NS(=O)(=O)c4c(CN(C)S(C)(=O)=O)cccc43)C(=O)[C@@H]2C(C)(C)C)ccc1F [N-{3-[(S)-5-tert-Butyl-1-(4-fluoro-3-methyl-benzyl)-4-hydroxy-2-oxo-2,5-dihydro-1H-pyrrol-3-yl]-1,1-dioxo-1H-1lambda*6*-benzo[d]isothiazol-7-ylmethyl}-N-methyl-methanesulfonamide] | 5 nM
4 | CC(C)(C)[C@H]1C(=O)C(C2NS(=O)(=O)c3c(C=NS(N)(=O)=O)cccc32)C(=O)N1Cc1ccc(F)cc1 (stereo partly drawn) [N-({3-[(5S)-5-tert-butyl-1-[(4-fluorophenyl)methyl]-4-hydroxy-2-oxo-2,5-dihydro-1H-pyrrol-3-yl]-1,1-dioxo-{6},2-benzothiazol-7-yl}methyl)aminosulfonamide] | 3 nM

The remaining lines, values ahead:

Row | IC50 | SMILES
5 | 5 nM | CC(C)(C)[C@H]1C(=O)C(=C2NS(=O)(=O)c3c(NS(C)(=O)=O)cccc32)C(=O)N1Cc1ccc(F)cc1 [N-{3-[(S)-5-tert-Butyl-1-(4-fluoro-benzyl)-4-hydroxy-2-oxo-2,5-dihydro-1H-pyrrol-3-yl]-1,1-dioxo-1H-1lambda*6*-benzo[d]isothiazol-7-yl}-methanesulfonamide]
6 | 4 nM | Cc1cc(CN2C(=O)C(=C3NS(=O)(=O)c4c(CNS(C)(=O)=O)cccc43)C(=O)[C@@H]2C(C)(C)C)ccc1F [N-{3-[(S)-5-tert-Butyl-1-(4-fluoro-3-methyl-benzyl)-4-hydroxy-2-oxo-2,5-dihydro-1H-pyrrol-3-yl]-1,1-dioxo-1H-1lambda*6*-benzo[d]isothiazol-7-ylmethyl}-methanesulfonamide]
